Patent US12605383B2, “Methods of treating cancer” (priority 2020, dated 2026)

Key:
KRASG12C PDX models = details: Janes et al. 2018; cited from earlier work
LLC cells = assay: Cell viability (CCK8) assay, LLC cells; format: cell-based, murine; details: LLC (KRASG12C mutant), 0.016 up to 7500 nM, 48 h
AE17 cells = assay: Cell viability (CCK8) assay, AE17 cells; format: cell-based, murine; details: AE17 (KRASG12C mutant), 0.016 up to 7500 nM, 48 h
H2122 cells = assay: Cell viability (CCK8) assay, H2122 cells; format: cell-based, human; details: H2122 (KRASG12C mutant), 0.016 up to 7500 nM, 48 h
[1] = test system: viral replication of vvTD and vvTD-IL36γ; format: cell-based, vaccinia virus
LLC s.c. tumor = assay: Subcutaneous LLC tumor model, tumor size and survival; format: in vivo, B6 mice
AE17 s.c. tumor = assay: Subcutaneous AE17 tumor model, tumor size and survival; format: in vivo, B6 mice
[2] = test system: LLC tumor microenvironment; assay: Flow cytometry of immune cells in LLC tumor tissues; format: in vivo, B6 mice; details: days 6 and 11
[3] = test system: LLC tumor-specific T cells; assay: IFN-γ ELISpot assay of TILs from LLC tumors; format: in vivo, B6 mice; details: 2.0×10^4 CD90.2+ TILs, day 7, co-cultured 1:1 with irradiated LLC cells
MC38 s.c. tumor = assay: Subcutaneous MC38 tumor model, tumor size and survival; details: for Median survival: MC38 s.c. tumor, FIG. 2F

In the case of `C=CC(=O)N1CCN(c2ncnc3c(F)c(-c4c(O)cccc4F)c(Cl)cc23)CC1` [ARS-1620], the “in vivo antitumor effect” value (KRASG12C PDX models) is given as “tumor regression”.
For `C=CC(=O)N1CCN(c2nc(OC[C@@H]3CCCN3C)nc3c2CCN(c2cccc4cccc(C)c24)C3)C[C@@H]1CC#N` [MRTX1257], the “sensitivity of cancer cells to MRTX1257” value (LLC cells) was “highly sensitive”, the “sensitivity of cancer cells to MRTX1257” value (AE17 cells) was “highly sensitive” and the “sensitivity of cancer cells to MRTX1257” value (H2122 cells) was “more sensitive than A549 cells”. The “effect on viral replication and accumulation of vvTD and vvTD-IL36γ” value [1] was “small inhibitory effect”, the “antitumor effect (tumor size)” value (LLC s.c. tumor; LLC model, MRTX1257 60 mg/kg oral, OVs 2.0e6 pfu/mouse intratumoral, FIG. 3A) was “significant antitumor effect” and the “Median survival” value (LLC s.c. tumor; LLC s.c. tumor, MRTX1257 60 mg/kg, FIG. 2D) was 36 days. For the same molecule, the “Median survival” value (LLC s.c. tumor; LLC s.c. tumor, MRTX1257 100 mg/kg, FIG. 2D) was 39.5 days, the “Median survival” value (LLC s.c. tumor; LLC s.c. tumor, MRTX1257 200 mg/kg, FIG. 2D) was 45 days and the “inhibition of tumor growth” value (LLC s.c. tumor; LLC tumor model, 60-200 mg/kg, FIG. 2A) was “good efficacy”. For the same molecule, the “Median survival” value (LLC s.c. tumor; LLC tumor, OV i.t. single dose, MRTX1257 60 mg/kg oral daily for 3 weeks, FIG. 3B) was 39 days, the “Median survival” value (LLC s.c. tumor; LLC tumor, combination with PD-1 blockade, FIG. 6E) was 39 days and the “Median survival” value (AE17 s.c. tumor; AE17 s.c. tumor, MRTX1257 60 mg/kg, FIG. 2E) was 40.5 days. For the same molecule, the “Median survival” value (AE17 s.c. tumor; AE17 s.c. tumor, MRTX1257 100 mg/kg, FIG. 2E) was 40 days, the “Median survival” value (AE17 s.c. tumor; AE17 s.c. tumor, MRTX1257 200 mg/kg, FIG. 2E) was 47 days and the “inhibition of tumor growth” value (AE17 s.c. tumor; AE17 tumor model, 60-200 mg/kg, FIG. 2B) was “good efficacy”. For the same molecule, the “Median survival” value (AE17 s.c. tumor; AE17 tumor, OV i.t. single dose, MRTX1257 60 mg/kg oral daily for 3 weeks, FIG. 3) was 49.5 days, the “CD8+ T cells in tumor tissue” value [2] was “no reduction” and the “number of IFN-γ ELISpot spots” value [3] was about 180 spots. The “sensitivity of cancer cells to MRTX1257” value (MC38 cells; MC38 (non-KRASG12C), 0.016 up to 7500 nM, 48 h) was “less sensitive”, the “drug-mediated cytotoxicity over time” value (MC38 cells; MC38, MRTX1257 at 100 nM, 24-72 h, versus LLC and AE17) was “much more resistant” and the “Median survival” value (MC38 s.c. tumor; MRTX1257 60 mg/kg) was 24 days. The “Median survival” value (MC38 s.c. tumor; MRTX1257 100 mg/kg) was 24 days, the “Median survival” value (MC38 s.c. tumor; MRTX1257 200 mg/kg) was 22 days and the “inhibition of tumor growth” value (MC38 s.c. tumor; MC38 tumor model, 60-200 mg/kg, FIG. 2C) was “no effect”.
